IC50, stoichiometry N and Kd data for four compounds are collected here from PMC8066426 (iScience, 2021).

Assay [1] deals with T1, CorC (TpCorC) (Thermus parvatiensis, UniProt A0A109QFA5).
T1 sequence (A0A109QFA5 207-348): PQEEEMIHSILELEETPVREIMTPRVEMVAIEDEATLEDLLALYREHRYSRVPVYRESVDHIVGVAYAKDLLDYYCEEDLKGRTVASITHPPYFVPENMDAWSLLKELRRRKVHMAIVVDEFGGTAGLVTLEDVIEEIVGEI
The experiment in a line: competitive displacement of mant-ATP. It counts as binding.

In assay [2] the target is TpCorC inter-subunit cross-linking mutant (T106C/C282A) (Thermus parvatiensis). As to the kind of experiment: cross-linking.
For assay [3], the target named is ATP-binding site mutant of the TpCorC cross-linking construct (T106C/C282A/Y255A/T336I) (Thermus parvatiensis). The experiment in a line: cross-linking.
For assay [4], the target named is T1, CorC (TpCorC). The experiment in a line: FRET from endogenous Trp to bound mant fluorophore, saturation binding.

As usually defined, the IC50 is the concentration that inhibits the measured activity by half. By stoichiometry N is commonly meant a count of units in the complex or per binding partner. What is called Kd is the free concentration of one partner at which half of the binding sites on the other are occupied at equilibrium, for simple one-to-one binding. Higher therefore signals lower affinity.

On to `Nc1ncnc2c1ncn2[C@@H]1O[C@H](COP(=O)(O)OP(=O)(O)OP(=O)(O)O)[C@@H](O)[C@H]1O` [ATP], for which, in assay [1], the IC50 stood at 570 ± 80 nM.

Consider “TpCorC inter-subunit cross-linking mutant (T106C/C282A) (natural protein)”, for which the stoichiometry N in assay [2] was determined as 2. Compound “ATP-binding site mutant of the TpCorC cross-linking construct (T106C/C282A/Y255A/T336I) (natural protein)” showed a stoichiometry N in assay [3] of 2. With `CNc1ccccc1C(=O)O[C@H]1[C@@H](O)[C@H](n2cnc3c(N)ncnc32)O[C@@H]1CO[P@@](=O)(O)O[P@](=O)(O)OP(=O)(O)O` [mant-ATP, 2′(3′)-O-(N-methylanthraniloyl)adenosine 5′-triphosphate], in assay [4], the Kd worked out at 1360 ± 100 nM.
